Laboratory results reported in article PMC12508063, “Chloroindazole based estrogen receptor β ligands with favorable pharmacokinetics promote functional remyelination and visual recovery” (Scientific Reports, 2025).
Structures can show the parent of a compound that is named as a salt. Where two headings read alike, the source gives them in different places.

Experiments:
[1] = tested on: co-cultures of primary cortical neurons and OPCs; assay: Axon myelination in co-cultures of primary cortical neurons and OPCs; format: cell-based, mouse; conditions: K102, K110 10 nM; Clemastine, Bazedoxifene 500 nM; 5 days
[2] = Stability in human plasma; format: in vitro ADME
primary mouse OPCs = assay: OL differentiation in primary mouse OPC culture (MBP, DAPI); format: cell-based; conditions: 10 nM and 100 nM, concentration-dependent
EAE mice = assay: EAE clinical disease score; format: in vivo, C57BL/6J mouse; conditions: 5 mg/kg/day SC from peak disease
Protocol: EAE induction and treatment: EAE was induced in 8–10-week-old wild-type C57BL/6J mice using MOG₃₅-₅₅ peptide[11],[14],[23]–[25]. Mice were scored daily using a standard clinical scale (0–5) and tested for their ability to stay on a rotarod. […] At peak disease (18–22 days post-immunization), animals were grouped into EAE+Vehicle, EAE+K102, and EAE+K110.
Fig. 3 Experimental design for treatment effects in EAE. (A) Experimental plan. […] Following emulsion injection, mice were injected with pertussis (PTX). Mice were scored for their clinical EAE score daily. EAE mice (red) show signs of disease starting at days 8–17. At peak disease between the days […], therapeutic treatment started and continued daily until the end of the experiment (D35-45). […] N = 6–8 mice/group. Two-Way unbalanced ANOVA with Dunnett’s multiple comparisons test was performed. […]
EAE induction and treatment: Eight to ten-week-old wild-type C57BL/6J mice were induced with active EAE using MOG35-55 peptide as previously described (1-5). […] Animals were scored daily for clinical EAE scores as follows: 0, unaffected; 1, complete tail limpness; 2, failure to right upon attempt to roll over; 3, partial hind limb paralysis; 4, complete hind limb paralysis; […]. At peak disease 18-22 dpi, mice were scored and separated into 3 groups: EAE+V, EAE+SHK-K102, and EAE+K110. […]

[3] = hepatocytes
[4] = hepatocytes, 0.25 h
[5] = plasma
[6] = plasma; remark: listed apart in the source
CYP1A2 = CYP1A2 (Homo sapiens, UniProt P05177); assay: in vitro
CYP3A4 = CYP3A4 (Homo sapiens, UniProt P08684); assay: in vitro
CYP2D6 = CYP2D6 (Homo sapiens, UniProt P10635); assay: CYP inhibition; conditions: human, probe Dextromethorphan
CYP2C9 = CYP2C9 (Homo sapiens, UniProt P11712); assay: CYP inhibition; conditions: human
[7] = Plasma protein binding (mouse)
[8] = Plasma protein binding (human)
[9] = tested on: multiple sclerosis patients; conditions: oral estriol combined with glatiramer acetate (GA), Phase 2 trial; cited from earlier work

Chain of CYP3A4 (P08684 whole entry): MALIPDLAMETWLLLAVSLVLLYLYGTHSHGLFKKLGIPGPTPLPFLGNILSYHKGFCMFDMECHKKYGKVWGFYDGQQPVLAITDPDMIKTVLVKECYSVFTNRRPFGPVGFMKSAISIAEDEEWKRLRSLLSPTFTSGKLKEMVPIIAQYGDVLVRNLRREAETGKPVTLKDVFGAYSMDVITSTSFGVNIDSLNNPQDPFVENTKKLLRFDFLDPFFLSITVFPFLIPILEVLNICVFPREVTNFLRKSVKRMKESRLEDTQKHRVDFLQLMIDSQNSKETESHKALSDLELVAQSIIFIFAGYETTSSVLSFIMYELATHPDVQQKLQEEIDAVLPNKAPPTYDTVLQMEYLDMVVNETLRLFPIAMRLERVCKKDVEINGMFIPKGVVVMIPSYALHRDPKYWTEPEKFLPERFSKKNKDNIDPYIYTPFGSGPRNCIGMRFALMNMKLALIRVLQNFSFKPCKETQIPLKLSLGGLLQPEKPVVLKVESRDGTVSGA
Chain of CYP2D6 (P10635 whole entry): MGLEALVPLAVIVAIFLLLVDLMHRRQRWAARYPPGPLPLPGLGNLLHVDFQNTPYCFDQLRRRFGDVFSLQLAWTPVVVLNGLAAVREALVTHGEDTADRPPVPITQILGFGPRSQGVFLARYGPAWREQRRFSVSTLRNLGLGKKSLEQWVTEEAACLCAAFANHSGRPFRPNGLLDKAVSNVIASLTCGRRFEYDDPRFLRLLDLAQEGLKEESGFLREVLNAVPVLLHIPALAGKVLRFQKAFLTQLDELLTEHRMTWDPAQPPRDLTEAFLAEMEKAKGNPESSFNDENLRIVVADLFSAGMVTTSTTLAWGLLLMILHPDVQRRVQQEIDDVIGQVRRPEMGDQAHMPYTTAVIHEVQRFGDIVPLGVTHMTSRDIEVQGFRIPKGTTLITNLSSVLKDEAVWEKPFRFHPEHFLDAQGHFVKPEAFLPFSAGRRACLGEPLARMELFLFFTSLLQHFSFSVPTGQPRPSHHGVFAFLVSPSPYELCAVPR
Chain of CYP2C9 (P11712 whole entry): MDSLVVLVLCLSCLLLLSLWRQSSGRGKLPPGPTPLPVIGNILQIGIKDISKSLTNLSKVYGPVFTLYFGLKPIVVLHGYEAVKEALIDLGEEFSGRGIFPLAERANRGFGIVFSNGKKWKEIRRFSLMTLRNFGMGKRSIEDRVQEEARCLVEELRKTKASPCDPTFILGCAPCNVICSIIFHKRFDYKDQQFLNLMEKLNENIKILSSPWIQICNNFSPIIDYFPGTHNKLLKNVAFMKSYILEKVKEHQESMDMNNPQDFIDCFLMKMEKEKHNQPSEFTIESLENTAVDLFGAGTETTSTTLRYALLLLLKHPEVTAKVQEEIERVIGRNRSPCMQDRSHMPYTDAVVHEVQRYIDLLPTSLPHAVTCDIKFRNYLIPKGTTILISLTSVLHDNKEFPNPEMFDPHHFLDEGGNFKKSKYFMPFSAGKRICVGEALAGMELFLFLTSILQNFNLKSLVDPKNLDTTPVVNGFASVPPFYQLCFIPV
Chain of CYP1A2 (P05177 whole entry): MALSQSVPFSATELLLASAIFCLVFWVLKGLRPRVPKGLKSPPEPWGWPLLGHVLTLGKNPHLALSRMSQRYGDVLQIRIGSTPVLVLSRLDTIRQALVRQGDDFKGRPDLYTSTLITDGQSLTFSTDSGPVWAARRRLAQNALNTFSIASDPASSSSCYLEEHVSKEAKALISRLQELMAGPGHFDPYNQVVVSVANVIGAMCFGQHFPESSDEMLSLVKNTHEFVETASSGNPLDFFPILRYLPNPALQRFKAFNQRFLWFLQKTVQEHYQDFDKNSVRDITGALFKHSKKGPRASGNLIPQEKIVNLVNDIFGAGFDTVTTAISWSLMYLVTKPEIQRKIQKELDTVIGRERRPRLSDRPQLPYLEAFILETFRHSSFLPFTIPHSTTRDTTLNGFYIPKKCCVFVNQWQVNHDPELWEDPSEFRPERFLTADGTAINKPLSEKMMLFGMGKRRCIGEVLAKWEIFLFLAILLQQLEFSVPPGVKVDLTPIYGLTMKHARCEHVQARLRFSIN

Q: With CN1CCC[C@@H]1CCO[C@](C)(c1ccccc1)c1ccc(Cl)cc1 [Clemastine, Clemastine fumarate] as the compound, how does the “OL processes wrapping axons” value [1] read?
A: The value was “significant increase”.

Q: For Oc1ccc(-n2nc3ccc(O)cc3c2Cl)cc1 [Compound K101, IndCl], which “% Remaining at 6 hr in Human Plasma” value [2] is on record?
A: The value was 91.37%.

Q: What about the “number of MBP+ cells vs vehicle” value (primary mouse OPCs) of the same compound?
A: Its value is “significantly increased”.

Q: What about the EAE clinical disease (EAE mice) of the same compound?
A: Its EAE clinical disease is “decrease in EAE clinical disease”.

Q: And the “Hepatocyte Stability (Human) CLint” value [3]?
A: Its value is 78.30 µL/min/mg protein.

Q: And the “Hepatocyte Stability (Human) % Remaining (15 min)” value ([3]; 0.25 h)?
A: Its value is 57.83%.

Q: And the “Hepatocyte Stability (Mouse) % Remaining (15 min)” value [4]?
A: The value was 10.94%.

Q: And the “Protein Binding (% Bound) Mouse” value [5]?
A: Its value is 97.74%.

Q: What about the “Protein Binding (% Bound) Human” value [6] of the same compound?
A: Its value is 98.05%.

Q: Which inhibition at 10 µM (CYP1A2) does the source give for Cc1nc2c([nH]1)c(=O)n(C)c(=O)n2Cc1ccco1 [Furafylline] here?
A: The inhibition at 10 µM was 91.7%.

Q: With CC(=O)N1CCN(c2ccc(OCC3COC(Cn4ccnc4)(c4ccc(Cl)cc4Cl)O3)cc2)CC1 (stereo not drawn) [Ketoconazole] as the compound, how does the inhibition at 10 µM (CYP3A4; CYP Inhibition Percentage CYP3A4-M) read?
A: Its inhibition at 10 µM is 95.5%.

Q: What about the inhibition at 10 µM (CYP3A4; CYP Inhibition Percentage CYP3A4-T) of the same compound?
A: The inhibition at 10 µM was 92.5%.

Q: For C=C[C@H]1C[N@@]2CC[C@H]1C[C@@H]2[C@@H](O)c1ccnc2ccc(OC)cc12 [Quinidine], which inhibition at 10 µM (CYP2D6) is on record?
A: The inhibition at 10 µM was 92.7%.

Q: With Nc1ccc(S(=O)(=O)Nc2ccnn2-c2ccccc2)cc1 [Sulfaphenazole] as the compound, how does the inhibition at 10 µM (CYP2C9) read?
A: The inhibition at 10 µM was 93.9%.

Q: Which “% Remaining at 6 hr in Human Plasma” value [2] does the source give for CC(=O)CC(c1ccccc1)c1c(O)c2ccccc2oc1=O (stereo not drawn) [Wafarine] here?
A: The value was 111.24%.

Q: What about the “Protein Binding (% Bound) Mouse” value [7] of the same compound?
A: Its value is 93.11%.

Q: What about the “Protein Binding (% Bound) Human” value [8] of the same compound?
A: Its value is 98.68%.

Q: With C[C@]12CC[C@@H]3c4ccc(O)cc4CC[C@H]3[C@@H]1C[C@@H](O)[C@@H]2O [estriol] as the compound, how does the “reduction in annualized relapse rate compared to placebo” value [9] read?
A: Its value is 32%.
